Data from ChEMBL document CHEMBL3885861, “Open TG-GATES”.

Species on record: Rattus norvegicus
Assay: Open TG-GATES - Regimen: Daily Repeat
Assay type: toxicity, organism-based, Sprague-Dawley
Design: regimen Daily Repeat, gender Male, age 6 weeks
Conditions: in vivo, po, route gavage; for ALP / ALT / AST / BUN / CRE / DBIL / GLC / IP / K / LDH / Na / RALB / TBIL / TC / TG / TP / gamma-GTP: tissue Plasma; for Bas / Eos / Fbg / Lym / MCH / MCHC / MCV / Mono / Neu / PT / Plat / RBC / Ret / WBC: tissue Blood; for KIDNEY_L / KIDNEY_R / KIDNEY_TOTAL: tissue Kidney
[1] = 3 mg/kg, […], dose level Low, time 28 day
[2] = 10 mg/kg, 72 h, dose level Middle, time 3 day
[3] = 10 mg/kg, […], dose level Middle, time 7 day
[4] = 10 mg/kg, […], dose level Middle, time 14 day
[5] = 10 mg/kg, […], dose level Middle, time 28 day
[6] = 30 mg/kg, 72 h, dose level High, time 3 day
[7] = 30 mg/kg, […], dose level High, time 7 day
[8] = 30 mg/kg, […], dose level High, time 14 day

SMILES: Cc1cnc(NC(=O)C2=C(O)c3ccccc3S(=O)(=O)N2C)s1 [MELOXICAM]
- ALP [1]: 620 IU/L
- ALT [1]: 33.6 IU/L
- AST [1]: 64.4 IU/L
- BUN [1]: 18.2 mg/dL
- CRE [1]: 0.5 mg/dL
- DBIL [1]: 0.1 mg/dL
- GLC [1]: 235.2 mg/dL
- IP [1]: 7.2 mg/dL
- K [1]: 3.9 meq/L
- LDH [1]: 170.8 IU/L
- Na [1]: 142 meq/L
- RALB [1]: 3.5 g/dL
- TBIL [1]: 0.2 mg/dL
- TC [1]: 71.2 mg/dL
- TG [1]: 121.6 mg/dL
- TP [1]: 5.9 g/dL
- gamma-GTP [1]: 1.2 IU/L
- TERMINAL_BW [2]: 246.9 g
- Bas [2]: 0.8%
- Eos [2]: 0.6%
- Fbg [2]: 248.8 mg/dL
- Lym [2]: 71.4%
- MCH [2]: 21.7 pg
- MCHC [2]: 34.1%
- MCV [2]: 63.6 fL
- Mono [2]: 3.4%
- Neu [2]: 23.4%
- PT [2]: 11.7 s
- Plat [2]: 127 x10_4/uL
- RBC [2]: 635.2 x10_4/ul
- Ret [2]: 6%
- WBC [2]: 135.2 x10_2/uL
- KIDNEY_L [2]: 1.1 g
- KIDNEY_R [2]: 1.1 g
- KIDNEY_TOTAL [2]: 2.3 g
- ALP [2]: 919 IU/L
- ALT [2]: 43.2 IU/L
- AST [2]: 75.4 IU/L
- CRE [2]: 0.4 mg/dL
- DBIL [2]: 0.1 mg/dL
- IP [2]: 7.5 mg/dL
- K [2]: 4.1 meq/L
- LDH [2]: 242.6 IU/L
- Na [2]: 142.2 meq/L
- RALB [2]: 3.5 g/dL
- TBIL [2]: 0.2 mg/dL
- TC [2]: 79 mg/dL
- TG [2]: 129.2 mg/dL
- TP [2]: 5.7 g/dL
- gamma-GTP [2]: 1 IU/L
- TERMINAL_BW [3]: 277.9 g
- TERMINAL_BW [4]: 321.8 g
- TERMINAL_BW [5]: 398.2 g
- Bas [3]: 0.6%
- Eos [3]: 1%
- Fbg [3]: 223.8 mg/dL
- Lym [3]: 73.8%
- MCH [3]: 21.5 pg
- MCHC [3]: 34.5%
- MCV [3]: 62.2 fL
- Mono [3]: 2.8%
- Neu [3]: 21.8%
- PT [3]: 11.9 s
- RBC [3]: 633 x10_4/ul
- Ret [3]: 5.4%
- WBC [3]: 119.8 x10_2/uL
- Bas [4]: 1%
- Eos [4]: 0.8%
- Fbg [4]: 234.2 mg/dL
- Lym [4]: 74.2%
- MCH [4]: 20.3 pg
- MCHC [4]: 33.7%
- MCV [4]: 60 fL
- Mono [4]: 3%
- Neu [4]: 21.2%
- PT [4]: 11.6 s
- Plat [4]: 116.5 x10_4/uL
- RBC [4]: 699.4 x10_4/ul
- Ret [4]: 4.5%
- WBC [4]: 135.2 x10_2/uL
- Bas [5]: 1%
- Eos [5]: 1%
- Fbg [5]: 242.8 mg/dL
- Lym [5]: 73%
- MCH [5]: 19.4 pg
- MCHC [5]: 33.9%
- MCV [5]: 57.2 fL
- Mono [5]: 3.2%
- Neu [5]: 21.4%
- PT [5]: 11.5 s
- Plat [5]: 118.5 x10_4/uL
- RBC [5]: 740.6 x10_4/ul
- Ret [5]: 3.4%
- WBC [5]: 170.5 x10_2/uL
- KIDNEY_L [3]: 1.2 g
- KIDNEY_R [3]: 1.2 g
- KIDNEY_TOTAL [3]: 2.4 g
- KIDNEY_L [4]: 1.4 g
- KIDNEY_R [4]: 1.4 g
- KIDNEY_TOTAL [4]: 2.7 g
- KIDNEY_L [5]: 1.5 g
- KIDNEY_R [5]: 1.5 g
- KIDNEY_TOTAL [5]: 3 g
- ALP [3]: 952.8 IU/L
- ALT [3]: 34.2 IU/L
- AST [3]: 72.6 IU/L
- CRE [3]: 0.5 mg/dL
- DBIL [3]: 0.094 mg/dL
- IP [3]: 7.5 mg/dL
- K [3]: 4.2 meq/L
- LDH [3]: 197.8 IU/L
- Na [3]: 141.4 meq/L
- RALB [3]: 3.4 g/dL
- TBIL [3]: 0.2 mg/dL
- TC [3]: 68.4 mg/dL
- TG [3]: 96.4 mg/dL
- TP [3]: 5.6 g/dL
- gamma-GTP [3]: 3.4 IU/L
- ALP [4]: 873.6 IU/L
- ALT [4]: 38.6 IU/L
- AST [4]: 72.8 IU/L
- BUN [4]: 17.8 mg/dL
- CRE [4]: 0.4 mg/dL
- DBIL [4]: 0.1 mg/dL
- IP [4]: 7.2 mg/dL
- K [4]: 4 meq/L
- LDH [4]: 185.4 IU/L
- Na [4]: 142.6 meq/L
- RALB [4]: 3.5 g/dL
- TBIL [4]: 0.2 mg/dL
- TC [4]: 67.2 mg/dL
- TG [4]: 128.6 mg/dL
- TP [4]: 5.9 g/dL
- gamma-GTP [4]: 1 IU/L
- ALP [5]: 643.2 IU/L
- ALT [5]: 33.2 IU/L
- AST [5]: 66 IU/L
- BUN [5]: 17 mg/dL
- CRE [5]: 0.5 mg/dL
- DBIL [5]: 0.096 mg/dL
- GLC [5]: 244 mg/dL
- IP [5]: 7.3 mg/dL
- K [5]: 3.9 meq/L
- LDH [5]: 176.8 IU/L
- Na [5]: 141.8 meq/L
- RALB [5]: 3.2 g/dL
- TBIL [5]: 0.2 mg/dL
- TC [5]: 65.2 mg/dL
- TG [5]: 121.4 mg/dL
- TP [5]: 5.7 g/dL
- gamma-GTP [5]: 0.8 IU/L
- TERMINAL_BW [6]: 230.2 g
- Bas [6]: 0.6%
- Eos [6]: 0.4%
- Fbg [6]: 378.4 mg/dL
- Lym [6]: 66.6%
- MCH [6]: 21.2 pg
- MCHC [6]: 34.1%
- MCV [6]: 61.9 fL
- Mono [6]: 4.4%
- Neu [6]: 25.6%
- PT [6]: 11.6 s
- RBC [6]: 512.4 x10_4/ul
- Ret [6]: 7.1%
- WBC [6]: 150.3 x10_2/uL
- KIDNEY_L [6]: 1.2 g
- KIDNEY_R [6]: 1.2 g
- KIDNEY_TOTAL [6]: 2.5 g
- ALP [6]: 536 IU/L
- ALT [6]: 26 IU/L
- AST [6]: 52.4 IU/L
- BUN [6]: 17 mg/dL
- CRE [6]: 0.4 mg/dL
- DBIL [6]: 0.072 mg/dL
- IP [6]: 8.2 mg/dL
- K [6]: 4.1 meq/L
- LDH [6]: 165.8 IU/L
- Na [6]: 140.8 meq/L
- RALB [6]: 2.4 g/dL
- TBIL [6]: 0.1 mg/dL
- TC [6]: 71.6 mg/dL
- TG [6]: 110.4 mg/dL
- TP [6]: 4.9 g/dL
- gamma-GTP [6]: 1.2 IU/L
- TERMINAL_BW [7]: 231.5 g
- TERMINAL_BW [8]: 312.2 g
- Bas [7]: 0.6%
- Eos [7]: 0.6%
- Fbg [7]: 379.2 mg/dL
- Lym [7]: 55.6%
- MCH [7]: 20.6 pg
- MCHC [7]: 32.5%
- MCV [7]: 63.4 fL
- Mono [7]: 4.8%
- Neu [7]: 36.6%
- PT [7]: 12 s
- Plat [7]: 251.1 x10_4/uL
- RBC [7]: 387 x10_4/ul
- Ret [7]: 17.2%
- WBC [7]: 145.2 x10_2/uL
- Bas [8]: 1%
- Eos [8]: 0%
- Fbg [8]: 283.5 mg/dL
- Lym [8]: 62%
- MCH [8]: 20.8 pg
- MCHC [8]: 33%
- MCV [8]: 63 fL
- Mono [8]: 4%
- Neu [8]: 32%
- PT [8]: 11.5 s
- Plat [8]: 174 x10_4/uL
- RBC [8]: 636.5 x10_4/ul
- Ret [8]: 8.5%
- WBC [8]: 190.7 x10_2/uL
- KIDNEY_L [7]: 1.1 g
- KIDNEY_R [7]: 1.1 g
- KIDNEY_TOTAL [7]: 2.2 g
- KIDNEY_L [8]: 1.5 g
- KIDNEY_R [8]: 1.5 g
- KIDNEY_TOTAL [8]: 3 g
- ALP [7]: 1681.8 IU/L
- ALT [7]: 18 IU/L
- AST [7]: 74 IU/L
- BUN [7]: 53.4 mg/dL
- CRE [7]: 0.5 mg/dL
- DBIL [7]: 0.1 mg/dL
- GLC [7]: 153 mg/dL
- IP [7]: 9.7 mg/dL
- K [7]: 5.8 meq/L
- LDH [7]: 221.2 IU/L
- Na [7]: 136 meq/L
- RALB [7]: 2.1 g/dL
- TBIL [7]: 0.2 mg/dL
- TC [7]: 66 mg/dL
- TG [7]: 111.4 mg/dL
- TP [7]: 5.1 g/dL
- gamma-GTP [7]: 7.4 IU/L
- ALP [8]: 580.5 IU/L
- ALT [8]: 32.5 IU/L
- AST [8]: 67 IU/L
- BUN [8]: 16 mg/dL
- CRE [8]: 0.4 mg/dL
- DBIL [8]: 0.095 mg/dL
- IP [8]: 7.5 mg/dL
- K [8]: 4.2 meq/L
- LDH [8]: 145.5 IU/L
- Na [8]: 142 meq/L
- RALB [8]: 3 g/dL
- TBIL [8]: 0.2 mg/dL
- TC [8]: 70 mg/dL
- TG [8]: 139.5 mg/dL
- TP [8]: 5.5 g/dL
- gamma-GTP [8]: 1 IU/L
